{"source": "patent US7655756B2", "about": "(Johnson & Johnson Pharmaceutical Research & Development, LLC, priority 2005, dated 2010)", "key": {"ERRγ-SRC2 complex": {"molecular_target": "T1, ERRγ-SRC2 complex (Homo sapiens, UniProt P62508)", "T1 construct": "made in house; host or cells: E. coli BL21(DE3) (ERRγ LBD)", "T1 sequence (P62508 229-458)": "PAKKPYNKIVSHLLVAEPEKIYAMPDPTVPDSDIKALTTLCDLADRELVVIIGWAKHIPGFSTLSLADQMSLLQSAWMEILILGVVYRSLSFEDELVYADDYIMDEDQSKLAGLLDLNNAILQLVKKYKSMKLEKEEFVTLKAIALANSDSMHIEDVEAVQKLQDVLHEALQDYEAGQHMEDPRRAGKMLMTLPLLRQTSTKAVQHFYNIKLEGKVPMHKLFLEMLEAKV", "experiment": "TR-FRET co-activator recruitment assay", "type": "biochemical", "conditions": "for Displacement of co-activator peptide from ERRγ (antagonism), in words: 6 nM ERRγ LBD, 6 nM GST-SRC-2 peptide", "protocol": "For FRET measurements, the reaction was buffered in 25 mM Tris pH 8, 2.5 mM Hepes, 20 mM KCl, 1 mM DTT, and 0.05 mg/mL delipidated BSA.\nTime-resolved Fluorescence resonance energy transfer (FRET) experiments were performed to examine the functional response of ERRγ ligands.\nFor FRET measurements, the reaction was buffered in 25 mM Tris pH 8, 2.5 mM Hepes, 20 mM KCl, 1 mM DTT, and 0.05 mg/mL BSA (-lipids). […] Reactions were allowed to reach equilibrium at 25° C. for 4-18 hours before collecting data on the Analyst from LJL Biosystems (Molecular Devices Sunnyvale, Calif.). […] Dose response curves were fitted using a hyperbolic equation and the data reported is the average of three independent experiments."}, "ERα": {"molecular_target": "T2, ERα (Homo sapiens, UniProt P03372)", "T2 sequence (P03372 1-595)": "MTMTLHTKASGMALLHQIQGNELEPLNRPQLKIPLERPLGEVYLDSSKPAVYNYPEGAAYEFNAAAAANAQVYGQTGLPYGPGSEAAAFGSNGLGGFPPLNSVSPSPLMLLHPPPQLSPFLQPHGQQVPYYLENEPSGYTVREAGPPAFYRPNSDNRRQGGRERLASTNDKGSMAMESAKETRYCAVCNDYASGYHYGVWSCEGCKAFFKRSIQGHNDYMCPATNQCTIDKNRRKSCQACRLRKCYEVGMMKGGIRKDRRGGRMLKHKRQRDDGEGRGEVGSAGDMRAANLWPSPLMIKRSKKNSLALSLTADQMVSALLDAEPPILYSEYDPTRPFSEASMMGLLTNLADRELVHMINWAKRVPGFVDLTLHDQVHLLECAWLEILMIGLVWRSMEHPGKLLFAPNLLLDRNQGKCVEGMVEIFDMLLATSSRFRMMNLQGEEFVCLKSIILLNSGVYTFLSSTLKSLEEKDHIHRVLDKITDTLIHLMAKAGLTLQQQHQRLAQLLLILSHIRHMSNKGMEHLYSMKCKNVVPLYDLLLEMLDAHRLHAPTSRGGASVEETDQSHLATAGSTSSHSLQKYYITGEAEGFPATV", "experiment": "ThermoFluor thermal shift assay, ERα", "type": "binding"}}}
{"smiles": "Cc1cc(O)ccc1Cl", "note": "[ClCH3Ph, 4-chloro, 3-methyl phenol]", "values": [{"measurement": "Enhancement in the affinity of the receptor for co-activator peptide fragments, in words", "setting": "ERRγ-SRC2 complex", "value": "not able to demonstrate"}, {"measurement": "Displacement of co-activator peptide from ERRγ (antagonism), in words", "setting": "ERRγ-SRC2 complex", "value": "neither ligand displaced co-activator peptide"}, {"measurement": "Displacement of co-activator peptide from ERRγ (antagonism), in words", "setting": "ERRγ-SRC2 complex; listed as ClCh3PH", "value": "ineffective"}, {"measurement": "Kd", "setting": "ERα; calculated at reference temperature 25 °C from ΔTm of Table II, ΔHu 112 kcal/mol, read-out: Estimated dissociation constant, ERα", "value": 37.3, "unit": "µM"}, {"measurement": "ΔTm at 100 µM", "setting": "ERα; pH 8, read-out: ΔTm, thermal stabilization of ERα", "value": 0.4, "unit": "°C"}]}
